Here are results for 19 compounds from US20250235460A1, “COMBINATION THERAPY USING GLUCOSE-DEPENDENT INSULINOTROPIC POLYPEPTIDE RECEPTOR ANTAGONIST COMPOUNDS AND GLP-1 RECEPTOR AGONIST COMPOUNDS” (Pfizer Inc., priority 2024, published 2025).

Usually EC50 stands for the concentration at which the effect is half-maximal. High values mean lower potency in that assay, low ones higher potency in that assay. Usually Emax stands for the size of the effect at its maximum, as opposed to the concentration needed.

The structures appear in SMILES notation. Where a name gives a salt, the structure may show the parent alone. Read-outs that look alike come from different tables or passages of the source.

Assay [1] deals with human GLP-1R (Homo sapiens, UniProt P43220, G168S). As to the kind of experiment: CHO GLP-1R Clone H6 cAMP HTRF agonist assay (Assay 1, high receptor density). Type of assay: cell-based. The note with it: for EC50: CHO GLP-1R clone H6, cAMP HTRF, geometric mean; for Emax: read-out: Assay 1 Emax (%). In outline:
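Two significant figures are used throughout. Each EC50 is the geometric mean of its replicates, and each Emax is the arithmetic mean.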
Background: In TR-FRET formats the signal depends on donor and acceptor labels being close together.

Assay [2] has as its target human GLP-1R (Homo sapiens, UniProt P43220, L260F). Description: CHO GLP-1R Clone C6 cAMP HTRF agonist assay (Assay 2, low receptor density). It is filed as cell-based. Conditions: for EC50: CHO GLP-1R clone C6, cAMP HTRF, geometric mean. The source says:
In Table 5 and Table 6, assay data are presented to two (2) significant figures as the geometric mean (EC50s) and arithmetic mean (Emax) based on the number of replicates listed (Number). A blank cell means there was no data for that Example or the Emax was not calculated.

[3] abbreviates: CHO GLP-1R clone H6, arithmetic mean, relative to saturating GLP-1 (1 μM).
The mark [4] stands for this setting: CHO GLP-1R clone C6, arithmetic mean, relative to saturating GLP-1 (1 μM).

Sequence of human GLP-1R (Homo sapiens, UniProt P43220, L260F) (P43220 24-463 L260F): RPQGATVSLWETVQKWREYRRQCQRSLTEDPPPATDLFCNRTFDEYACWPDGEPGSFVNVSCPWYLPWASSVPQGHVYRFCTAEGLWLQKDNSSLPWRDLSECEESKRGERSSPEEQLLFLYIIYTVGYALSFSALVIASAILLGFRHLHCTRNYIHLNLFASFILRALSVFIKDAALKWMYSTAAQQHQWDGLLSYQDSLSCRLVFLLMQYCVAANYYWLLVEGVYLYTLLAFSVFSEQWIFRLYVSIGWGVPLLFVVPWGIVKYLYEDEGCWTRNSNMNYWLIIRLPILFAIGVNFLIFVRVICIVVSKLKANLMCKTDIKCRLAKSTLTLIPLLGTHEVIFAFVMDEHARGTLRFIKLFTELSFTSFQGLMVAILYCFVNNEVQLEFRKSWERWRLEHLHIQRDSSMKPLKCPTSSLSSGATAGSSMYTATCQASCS
Sequence of human GLP-1R (Homo sapiens, UniProt P43220, G168S) (P43220 24-463 G168S): as the sequence (P43220 24-463 L260F) above, with G145S, F237L counted along it

`COCCN1CCCC(Cn2c(CN3CCC(c4cccc(OCc5ccc(Cl)cc5F)n4)CC3)nc3ccc(C(=O)O)cc32)C1` (stereo not shown) [Compound 288B, 2-[(4-{6-[(4-chloro-2-fluorobenzyl)oxy]pyridin-2-yl}piperidin-1-yl)methyl]-1-{[1-(2-methoxyethyl)piperidin-3-yl]methyl}-1H-benzimidazole-6-carboxylic acid]: the figures for the EC50 at human GLP-1R [1] and on human GLP-1R [2] were 30 nM and 360 nM, respectively. For the same compound, the maximal effect (Emax) on human GLP-1R [1] (setting [3]) was 77%; on human GLP-1R [2] (setting [4]) it was 89%.

On to `O=C(O)c1ccc2nc(CN3CCN(c4cccc(OCc5ccc(Cl)cc5F)n4)CC3)n(Cc3cnco3)c2c1` [Compound 158B, 2-[(4-{6-[(4-chloro-2-fluorobenzyl)oxy]pyridin-2-yl}piperazin-1-yl)methyl]-1-(1,3-oxazol-5-ylmethyl)-1H-benzimidazole-6-carboxylic acid], for which the EC50 at human GLP-1R [1] turned out to be 14 nM; on human GLP-1R [2], 190 nM. Also, the maximal effect (Emax) on human GLP-1R [1] (setting [3]) was found to be 72%; at human GLP-1R [2] (setting [4]), 83%.

With `COCCn1c(CN2CCC(c3cccc(OCc4c(F)cc(Cl)cc4F)n3)CC2)nc2ccc(C(=O)O)cc21` [Compound 220B, 2-((4-(6-((4-chloro-2,6-difluorobenzyl)oxy)pyridin-2-yl)piperidin-1-yl)methyl)-1-(2-methoxyethyl)-1H-benzo[d]imidazole-6-carboxylic acid], the 50% effective concentration (EC50) was 0.33 nM on human GLP-1R [1] and 13 nM on human GLP-1R [2]. Besides, the maximal effect (Emax) on human GLP-1R [1] (setting [3]) was 82%; at human GLP-1R [2] (setting [4]), 110%.

As for `Cn1c(CN2CCC(c3cccc(OCc4ccc(Cl)cc4F)n3)CC2)nc2ccc(C(=O)O)nc21` [Compound 199B, 2-((4-(6-((4-Chloro-2-fluorobenzyl)oxy)pyridin-2-yl)piperidin-1-yl)methyl)-3-methyl-3H-imidazo[4,5-b]pyridine-5-carboxylic acid hydrochloride], the results for the EC50 at human GLP-1R [1] and at human GLP-1R [2] were 1.7 nM and 45 nM, respectively. For the same compound, the results for the Emax on human GLP-1R [1] and on human GLP-1R [2] (setting [4]) were 67% and 83%, respectively.

Regarding `COCCn1c(CN2CCN(c3cccc(OCc4ccc(Cl)cc4F)n3)CC2C(F)(F)F)nc2ccc(C(=O)O)cc21` (stereo not shown) [Compound 348B, 2-((4-(6-((4-Chloro-2-fluorobenzyl)oxy)pyridin-2-yl)-2-(trifluoromethyl)piperazin-1-yl)methyl)-1-(2-methoxyethyl)-1H-benzo[d]imidazole-6-carboxylic acid], the EC50 at human GLP-1R [1] amounted to 54 nM; on human GLP-1R [2], 2100 nM. Besides, the Emax at human GLP-1R [1] (setting [3]) was 81%; at human GLP-1R [2] (setting [4]), 100%.

As to `N#Cc1ccc(COc2cccc(N3CCN(Cc4nc5ccc(C(=O)O)nc5n4C[C@@H]4CCO4)CC3)n2)c(F)c1` [Compound 123B, 2-[(4-{6-[(4-cyano-2-fluorobenzyl)oxy]pyridin-2-yl}piperazin-1-yl)methyl]-3-[(2S)-oxetan-2-ylmethyl]-3H-imidazo[4,5-b]pyridine-5-carboxylic acid], the EC50 amounted to 2.4 nM on human GLP-1R [1] and 45 nM at human GLP-1R [2]. Also, the Emax on human GLP-1R [1] (setting [3]) was found to be 87%; on human GLP-1R [2] (setting [4]), 95%.

For the compound `COCCn1c(CN2CC[C@H](c3cccc(OCc4ccc(Cl)cc4F)n3)[C@H](C)C2)nc2ccc(C(=O)O)cc21` (racemic) [Compound 192B, rac-2-{[(3R,4R)-4-{6-[(4-chloro-2-fluorobenzyl)oxy]pyridin-2-yl}-3-methylpiperidin-1-yl]methyl}-1-(2-methoxyethyl)-1H-benzimidazole-6-carboxylic acid], the 50% effective concentration (EC50) at human GLP-1R [1] stood at 0.99 nM; at human GLP-1R [2] it was 10 nM. In addition, the Emax at human GLP-1R [1] (setting [3]) turned out to be 95%; at human GLP-1R [2] (setting [4]), 120%.

Take `Cn1c(CN2CCC(c3cccc(OCc4cccc(F)c4F)n3)CC2)nc2ccc(C(=O)O)cc21` [Compound 227B, 2-[(4-{6-[(2,3-difluorobenzyl)oxy]pyridin-2-yl}piperidin-1-yl)methyl]-1-methyl-1H-benzimidazole-6-carboxylic acid]: the EC50 was 4 nM at human GLP-1R [1] and 48 nM on human GLP-1R [2]. The maximal response (Emax) stood at 64% at human GLP-1R [1] (setting [3]) and 79% on human GLP-1R [2] (setting [4]).

`COCCn1c(CN2CC[C@H](c3cccc(OCc4ccc(Cl)cc4F)n3)[C@H](O)C2)nc2ccc(C(=O)O)cc21` (racemic) [Compound 191B, rac-2-{[(3R,4S)-4-{6-[(4-chloro-2-fluorobenzyl)oxy]pyridin-2-yl}-3-hydroxypiperidin-1-yl]methyl}-1-(2-methoxyethyl)-1H-benzimidazole-6-carboxylic acid]: the EC50 on human GLP-1R [1] came out at 0.55 nM; at human GLP-1R [2] it was 9.2 nM. For the same compound, the maximal effect (Emax) on human GLP-1R [1] (setting [3]) came out at 77%; at human GLP-1R [2] (setting [4]) it was 94%.

In the case of `Cn1cnnc1Cn1c(CN2CCC(c3cccc(OCc4ccc(Cl)cc4F)n3)CC2)nc2ccc(C(=O)O)cc21` [Compound 345B, 2-[(4-{6-[(4-chloro-2-fluorobenzyl)oxy]pyridin-2-yl}piperidin-1-yl)methyl]-1-[(4-methyl-4H-1,2,4-triazol-3-yl)methyl]-1H-benzimidazole-6-carboxylic acid], the EC50 on human GLP-1R [1] was 6.1 nM; at human GLP-1R [2], 150 nM. In addition, the maximum response (Emax) amounted to 89% on human GLP-1R [1] (setting [3]) and 97% at human GLP-1R [2] (setting [4]).

On to `CN1CCCCC1Cn1c(CN2CCC(c3cccc(OCc4ccc(Cl)cc4F)n3)CC2)nc2ccc(C(=O)O)cc21` (stereo not shown) [Compound 285B, 2-[(4-{6-[(4-chloro-2-fluorobenzyl)oxy]pyridin-2-yl}piperidin-1-yl)methyl]-1-[(1-methylpiperidin-2-yl)methyl]-1H-benzimidazole-6-carboxylic acid], for which the figures for the EC50 at human GLP-1R [1] and on human GLP-1R [2] were 21 nM and 200 nM, respectively. The maximal effect (Emax) amounted to 82% on human GLP-1R [1] (setting [3]) and 81% on human GLP-1R [2] (setting [4]).

Take `COCCn1c(CN2CC[C@H](c3cccc(OCc4ccc(Cl)cc4F)n3)C[C@H]2C)nc2ccc(C(=O)O)cc21` (relative stereo) [Compound 357B, trans 2-{[4-{6-[(4-Chloro-2-fluorobenzyl)oxy]pyridin-2-yl}-2-methylpiperidin-1-yl]methyl}-1-(2-methoxyethyl)-1H-benzimidazole-6-carboxylic acid]: the results for the EC50 on human GLP-1R [1] and at human GLP-1R [2] were 28 nM and 350 nM, respectively. Further, the maximum response (Emax) on human GLP-1R [1] (setting [3]) worked out at 82%; on human GLP-1R [2] (setting [4]), 70%.

Consider `C[C@H]1CN(c2cccc(OCc3ccc(C#N)cc3)n2)CCN1Cc1nc2ccc(C(=O)O)cc2n1C[C@@H]1CCO1` [Compound 261B, 2-{[(2S)-4-{6-[(4-cyanobenzyl)oxy]pyridin-2-yl}-2-methylpiperazin-1-yl]methyl}-1-[(2S)-oxetan-2-ylmethyl]-1H-benzimidazole-6-carboxylic acid], for which the Emax at human GLP-1R [1] (setting [3]) amounted to 100%. At human GLP-1R [2] (setting [4]), the “Assay 2 Emax (%)” value is on record as 120%.

Turning to `CC1CN(c2cccc(OCc3ccc(C#N)cc3F)n2)CCN1Cc1nc2ccc(C(=O)O)cc2n1Cc1cnco1` (stereo in doubt) [Compound 242B, 2-{[(2S)-4-{6-[(4-cyano-2-fluorobenzyl)oxy]pyridin-2-yl}-2-methylpiperazin-1-yl]methyl}-1-(1,3-oxazol-5-ylmethyl)-1H-benzimidazole-6-carboxylic acid], the EC50 at human GLP-1R [1] worked out at 0.52 nM; on human GLP-1R [2], 8.5 nM. The Emax was 70% on human GLP-1R [1] (setting [3]) and 78% on human GLP-1R [2] (setting [4]).

Consider `COC(C)(C)Cn1c(CN2CCC(c3cccc(OCc4ccc(Cl)cc4F)n3)CC2)nc2ccc(C(=O)O)cc21` [Compound 297B, 2-[(4-{6-[(4-chloro-2-fluorobenzyl)oxy]pyridin-2-yl}piperidin-1-yl)methyl]-1-(2-methoxy-2-methylpropyl)-1H-benzimidazole-6-carboxylic acid], for which the EC50 on human GLP-1R [1] came to 110 nM; at human GLP-1R [2], 3500 nM. In addition, the Emax on human GLP-1R [1] (setting [3]) came to 70%; on human GLP-1R [2] (setting [4]) it was 95%.

In the case of `O=C(O)c1ccc2nc(CN3CCN(c4cccc(OCc5ccc(Cl)cc5F)n4)CC3)n(C[C@@H]3CCO3)c2n1` [Compound 120B, 2-[(4-{6-[(4-chloro-2-fluorobenzyl)oxy]pyridin-2-yl}piperazin-1-yl)methyl]-3-[(2S)-oxetan-2-ylmethyl]-3H-imidazo[4,5-b]pyridine-5-carboxylic acid], the EC50 on human GLP-1R [1] is 47 nM; at human GLP-1R [2], 1600 nM. The Emax on human GLP-1R [1] (setting [3]) was determined as 71%; at human GLP-1R [2] (setting [4]), 81%.

`COCCn1c(CN2CCN(c3cccc(OCc4ccc(Cl)cc4F)n3)[C@@H](CO)C2)nc2ccc(C(=O)O)cc21` [Compound 185B, 2-{[(3R)-4-{6-[(4-chloro-2-fluorobenzyl)oxy]pyridin-2-yl}-3-(hydroxymethyl)piperazin-1-yl]methyl}-1-(2-methoxyethyl)-1H-benzimidazole-6-carboxylic acid]: the concentration giving a half-maximal response (EC50) was determined as 0.34 nM at human GLP-1R [1] and 2.2 nM on human GLP-1R [2]. For the same compound, the results for the maximum response (Emax) on human GLP-1R [1] (setting [3]) and at human GLP-1R [2] (setting [4]) were 89% and 97%, respectively.

For the compound `C[C@H]1CN(c2cccc(OCc3ccc(C#N)cc3F)n2)CCN1Cc1nc2ccc(C(=O)O)nc2n1Cc1ncco1` [Compound 215B, 2-{[(2S)-4-{6-[(4-cyano-2-fluorobenzyl)oxy]pyridin-2-yl}-2-methylpiperazin-1-yl]methyl}-3-(1,3-oxazol-2-ylmethyl)-3H-imidazo [4,5-b]pyridine-5-carboxylic acid], the midpoint of the response on human GLP-1R [1], the EC50, lay at 3.4 nM. Further, the Emax on human GLP-1R [1] (setting [3]) stood at 73%; at human GLP-1R [2] (setting [4]) it was 89%.

Take `Cn1c(CN2CCC(c3cccc(OCc4ccccc4F)n3)CC2)nc2ccc(C(=O)O)cc21` [Compound 226B, 2-[(4-{6-[(2-fluorobenzyl)oxy]pyridin-2-yl}piperidin-1-yl)methyl]-1-methyl-1H-benzimidazole-6-carboxylic acid]: the EC50 stood at 2.7 nM on human GLP-1R [1] and 29 nM at human GLP-1R [2]. For the same compound, the Emax worked out at 73% at human GLP-1R [1] (setting [3]) and 74% on human GLP-1R [2] (setting [4]).
